From paper PMC10999543, “Identification of kinase modulators as host-directed therapeutics against intracellular methicillin-resistant Staphylococcus aureus” (Frontiers in Cellular and Infection Microbiology, 2024)

Assays:
MRSA = format: in vivo, zebrafish; conditions: 10 µM, after 4 days, 1000 CFUs MRSA; DMSO 57.5%, uninfected 93.8%
Protocol: Zebrafish embryos were dechorionated at 24 hpf. The OD600 of a log-phase MRSA culture was centrifuged and dissolved in PBS with 2% polyvinylpyrrolidone (Merck) to improve homogeneity of the bacterial suspension. The OD600 was measured and the bacterial suspension was diluted to a final concentration of 10^9 CFUs/ml accordingly. The preparation of injection needles and the equipment used for microinjections have been previously described ([Benard et al., 2012]). At 28 hpf, zebrafish embryos were anesthetized in 200 µg/ml buffered ethyl 3-aminobenzoic acid (Tricaine, Sigma-Aldrich) and injected in the blood island with a bacterial dose of 1 nl containing 1000 CFUs of MRSA. Infected embryos were collected and randomly distributed over 6-wells plates with ten embryos/well. At 30 hpf, the infected embryos were given kinase inhibitors or DMSO as negative control. Survival of the embryos was scored at 48, 72, 96 and 120 hpf.

HeLa cells [1] = format: cell-based, human
Protocol: Before harvesting or lysing the cells of the intracellular infection assays, the supernatant from the cells was collected to quantify LDH release by the cells using the LDH cytotoxicity detection kit (Roche, Merck, Darmstadt, Germany) according to the manufacturer’s instructions. Triton X-100 results in maximum LDH release by permeabilizing the cells and was used as positive control. Quantification was performed with the EnVision plate reader.

intracellular MRSA = format: cell-based, Staphylococcus aureus
Summary of the method: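 HeLa cells infected with GFP-MRSA (MOI ~6.8), gentamicin-cleared, then incubated overnight at 37°C with inhibitors plus 5 µg/ml gentamicin; DMSO as negative control, triplicates. Flow cytometry gave % GFP-positive cells and cell count (viability surrogate); hits by plate z-score (MRSA ≤ -2, HeLa count ≥ -3).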

HeLa cells [2] = assay: Compound screen by flow cytometry: HeLa cell count as surrogate readout of cell viability (z-scoreHeLa); format: cell-based, human
Summary of the method: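 HeLa cells were infected with GFP-MRSA (mean MOI 6.8 ± 4.6) for 1 h, and extracellular bacteria were killed with 30 µg/ml gentamicin. Cells were then incubated overnight with kinase inhibitors in 5 µg/ml gentamicin, in triplicate against DMSO controls. Flow-cytometric cell count served as a viability surrogate, expressed as a plate z-score.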

[3] = tested on: intracellular MRSA in MCF7 cells; assay: Gentamicin protection assay with CFU count in MRSA-infected MCF7 cells; format: cell-based, Staphylococcus aureus; conditions: 10 µM, n=7
Protocol: The cells were resuspended in cell culture medium without antibiotics, seeded with 10,000 cells/well into Costar flat-bottom 96-well plates (Corning, Amsterdam, the Netherlands), and were incubated overnight at 37°C/5% CO2. The next day, the bacteria were centrifuged at ≥1800 g for 15 min and resuspended in cold PBS + 5 mM ethylenediaminetetraacetic acid (EDTA). The number of CFUs present in the bacterial suspension was estimated from the optical density at 600 nm (OD600) by assuming 8x10^8 CFUs to be present in a bacterial suspension with OD600 = 1, based on prior titrations. The bacterial suspension was diluted in cell culture medium without antibiotics and added to the cells. Accuracy of the multiplicity of infection (MOI) was validated by plating serial dilutions of the MRSA inoculums on Difco TS agar plates (BD Biosciences). The calculated mean MOI throughout all experiments was 6.8 ± 4.6 (mean ± SD). Infected cells were centrifuged for 3 min at 150 g and incubated for 1 hour at 37°C/5% CO2. Next, the cells were incubated with fresh cell culture medium supplemented with 30 µg/ml gentamicin sulphate (Lonza BioWhittaker, Basel, Switzerland) for 15 min at 37°C/5% CO2 to kill residual extracellular bacteria. Infected cells were incubated overnight at 37°C/5% CO2 in cell culture medium in the presence of kinase inhibitors and 5 µg/ml gentamicin sulphate-containing medium to prevent the growth of extracellular bacteria. The solvent of the compounds, DMSO, was used at equal % v/v as a negative control. For the screen, each compound was tested in triplicate, on separate cell culture plates, resulting in triplicate values for each kinase inhibitor.
Infected cells were lysed in sterile water + 0.05% UltraPure SDS solution (Invitrogen, ThermoFisher Scientific) to release intracellular bacteria. Bacterial suspensions and lysates of cells infected with MRSA were 5-fold serially diluted and 10-μl drops were plated on square TS agar plates. The plates were left to dry and incubated overnight at 37°C/5% CO2.

[4] = tested on: intracellular MRSA in HeLa cells; assay: Gentamicin protection assay with CFU count in MRSA-infected HeLa cells; format: cell-based, Staphylococcus aureus
Summary of the method: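 Cells infected with MRSA (mean MOI 6.8 ± 4.6) for 1 hour at 37°C, extracellular bacteria killed with 30 µg/ml gentamicin for 15 min, then overnight with kinase inhibitor plus 5 µg/ml gentamicin; DMSO as negative control. Cells lysed in water with 0.05% SDS, lysates serially diluted and plated for CFU; triplicate per compound.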

With `COc1ccc2[nH]c3c4[nH]c5ccc(OC)cc5c4c4c(c3c2c1)C(=O)NC4=O` [GW296115X] the “survival rate of MRSA-infected zebrafish embryos” value (MRSA) was 77.5%, the “cytotoxicity / cell viability by LDH-release” value (HeLa cells [1]; 30 µM, MRSA-infected HeLa cells) was “limited cytotoxicity” and the “cell viability of MRSA-infected cells” value (HeLa cells [1]; HeLa cells, Figure 5K) was “able to fully restore the loss in cell viability”. The “cell viability of MRSA-infected cells (LDH-release)” value (HeLa cells [1]; MRSA-infected HeLa cells, 10 µM, Figure 2G) was “rescued the loss of viability”, the “host cell viability when bafilomycin A1 is added” value (HeLa cells [1]; MRSA-infected HeLa cells, combined with bafilomycin A1 (100 nM), Figure 5I) was “reverted” and the “z-scoreMRSA+ (z-score of GFP-positive cells)” value (intracellular MRSA; 10 µM, 24 h, HeLa cells infected with GFP-expressing MRSA) was -3.82. For the same compound, the “MRSA-infected cells (mean ± SD)” value (intracellular MRSA; 10 µM, 24 h, HeLa cells, DMSO 14.6% ± 1.0%) was 2.1% ± 0.26, the “%GFP+ rep 1” value (intracellular MRSA; PKIS compounds raw data, replicate 1, MRSA-infected HeLa cells) was 2.3% and the “%GFP+ rep 2” value (intracellular MRSA; PKIS compounds raw data, replicate 2, MRSA-infected HeLa cells) was 1.8%. The “%GFP+ rep 3” value (intracellular MRSA; PKIS compounds raw data, replicate 3, MRSA-infected HeLa cells) was 2.2%, the effect (intracellular MRSA; Yes/No call from z-scoreMRSA+) was “Yes” and the hit (intracellular MRSA; Yes/No: effect without cell death) was “Yes”. For the same compound, the “z-scoreMRSA+ mean” value (intracellular MRSA; compound screen, MRSA-infected HeLa cells, mean of 3 replicates) was -3.82, the “z-scoreMRSA+ rep 1” value (intracellular MRSA; compound screen, MRSA-infected HeLa cells, replicate 1) was -3.48 and the “z-scoreMRSA+ rep 2” value (intracellular MRSA; compound screen, MRSA-infected HeLa cells, replicate 2) was -3.91. For the same compound, the “z-scoreMRSA+ rep 3” value (intracellular MRSA; compound screen, MRSA-infected HeLa cells, replicate 3) was -4.06, the “cell count rep 1” value (HeLa cells [2]; PKIS compounds raw data, replicate 1, HeLa cell count) was 4446 and the “cell count rep 2” value (HeLa cells [2]; PKIS compounds raw data, replicate 2, HeLa cell count) was 4236. For the same compound, the “cell count rep 3” value (HeLa cells [2]; PKIS compounds raw data, replicate 3, HeLa cell count) was 6955, the cell death (HeLa cells [2]; Yes/No call from z-scoreHeLa) was “No” and the z-scoreHeLa mean (HeLa cells [2]; compound screen, HeLa cell count, mean of 3 replicates) was -0.11. For the same compound, the “z-scoreHeLa rep 1” value (HeLa cells [2]; compound screen, HeLa cell count, replicate 1) was -0.30, the “z-scoreHeLa rep 2” value (HeLa cells [2]; compound screen, HeLa cell count, replicate 2) was -0.0242 and the “z-scoreHeLa rep 3” value (HeLa cells [2]; compound screen, HeLa cell count, replicate 3) was -0.00316. The “reduction in bacterial burden (CFU)” value [3] was 75%, the “reduction of intracellular bacterial burden (CFU)” value ([4]; 10 µM, validation of 17 hit compounds, Figure 2A) was 67% and the “reduction in bacterial burden (CFU)” value ([4]; HeLa cells, 10 µM, Figure 2B, n=17) was 70%. The “bacterial killing when bafilomycin A1 is added” value ([4]; HeLa cells, combined with bafilomycin A1 (100 nM), Figure 5H) was “reverted”, the “reduction of the intracellular bacterial burden, maximal” value ([4]; MRSA-infected HeLa cells, titration) was “up to 80%” and the Emax ([4]; Staphylococcus aureus, MRSA, HeLa) was -80%. It also gave an IC50 ([4]; Staphylococcus aureus, MRSA, HeLa, read-out: IC50 for reduction of intracellular bacterial burden) of 159 nM.
